Data reported in patent publication US20050282818A1, “Ubiquitin ligase inhibitors” (Rigel Pharmaceuticals, Inc., priority 2004, published 2005).
pIC50: −log10 of the molar value.

Legend:
APC11/APC2 = APC11/APC2 (Homo sapiens, UniProt Q9NYG5+Q9UJX6); test: APC-11/APC-2 ligase assay (APC auto ubiquitination); format: biochemical; conditions: APC assay
Procedure, shortened: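 His-tagged APC was captured on nickel plates with human E1 (5 ng/well), UbcH5c (20 ng/well), APC (100 ng/well) and Flag-ubiquitin (100 ng/well) in a Tris pH 7.6 reaction buffer containing 2.5 mM ATP, for 1 hour at room temperature. Read-out was anti-Flag/HRP chemiluminescence. IC50 was set against a DMSO control, typically from 6 or 8 concentrations.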

[1] = tested on: ICAM-1 expression in A549 cells; test: ICAM assay (IL-1 induced ICAM-1/CD54 expression in A549 cells); format: cell-based, human
Procedure, shortened: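 A549 cells, 10,000/well, preincubated with compound 1 h at 37° C, then stimulated with IL-1 (4 μl of 25 ng/ml added) for 4 h. Surface ICAM-1 detected by anti-CD54 plus anti-mouse IgG staining for 1 h, luminescent read-out after PBS washes.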

Sequence of APC11/APC2 (Q9NYG5 whole entry): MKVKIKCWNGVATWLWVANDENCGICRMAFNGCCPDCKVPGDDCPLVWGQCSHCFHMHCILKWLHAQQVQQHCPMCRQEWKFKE
Sequence of APC11/APC2 (Q9UJX6 whole entry): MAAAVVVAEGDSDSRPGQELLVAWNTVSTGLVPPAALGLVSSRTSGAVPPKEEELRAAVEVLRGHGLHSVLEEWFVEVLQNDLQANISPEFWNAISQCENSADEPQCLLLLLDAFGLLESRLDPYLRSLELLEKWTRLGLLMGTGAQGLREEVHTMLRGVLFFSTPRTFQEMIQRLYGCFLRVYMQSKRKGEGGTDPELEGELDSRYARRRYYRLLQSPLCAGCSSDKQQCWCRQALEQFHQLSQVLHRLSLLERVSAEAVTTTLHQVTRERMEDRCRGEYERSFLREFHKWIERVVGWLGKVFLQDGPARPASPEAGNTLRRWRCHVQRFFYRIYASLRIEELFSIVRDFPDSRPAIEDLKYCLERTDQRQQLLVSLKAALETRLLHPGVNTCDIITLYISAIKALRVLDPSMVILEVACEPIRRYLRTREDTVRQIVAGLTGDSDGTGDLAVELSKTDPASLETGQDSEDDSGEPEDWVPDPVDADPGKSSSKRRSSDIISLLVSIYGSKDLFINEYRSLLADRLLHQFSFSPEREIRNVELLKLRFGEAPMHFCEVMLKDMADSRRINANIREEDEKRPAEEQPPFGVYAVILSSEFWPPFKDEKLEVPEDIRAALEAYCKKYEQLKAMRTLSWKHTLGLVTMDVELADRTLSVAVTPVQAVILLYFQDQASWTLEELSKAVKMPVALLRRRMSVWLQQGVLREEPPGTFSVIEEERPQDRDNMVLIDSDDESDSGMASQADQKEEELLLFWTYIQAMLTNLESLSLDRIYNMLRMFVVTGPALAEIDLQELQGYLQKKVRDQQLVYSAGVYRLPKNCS

| SMILES | pIC50 (APC11/APC2) | pIC50 ([1]; Homo sapiens, A549, ICAM assay) | pIC50 ([1]; ICAM assay) |
| --- | --- | --- | --- |
| COc1cc(Nc2ccc(S(=O)(=O)Nc3cc(OC)c(Cl)cc3OC)c3nonc23)c(OC)cc1Cl [compound 342, N-(4-chloro-2,5-dimethoxyphenyl)-7-([4-chloro-2,5-dimethoxyphenyl]amino)-2,1,3-benzoxadiazole-4-sulfonamide] | 4.70 to 6.00 |  | 4.70 to 6.00 |
| CC(C)(C)c1ccc(-c2ccc([N+](=O)[O-])c3nonc23)cc1 [compound 313, 4-(4-Tert-butylphenyl)-7-nitro-2,1,3-benzoxadiazole] | 4.70 to 6.00 | 4.70 to 6.00 |  |
| COc1cc(NS(=O)(=O)c2ccc(Cl)c3nonc23)c(OC)cc1Cl [compound 341, 7-chloro-N-(4-chloro-2,5-dimethoxyphenyl)-2,1,3-benzoxadiazole-4-sulfonamide] | ≤ 4.70 | 4.70 to 6.00 |  |
| O=S(=O)(Nc1ccc2cn[nH]c2c1)c1c(O)ccc2nonc12 [compound 339, 5-hydroxy-N-(1H-indazol-6-yl)2,1,3-benzoxadiazole-4-sulfonamide] | ≤ 4.70 | ≤ 4.70 |  |
| O=S(=O)(c1c(Cl)ccc2nonc12)N1CCN(c2ncc(C(F)(F)F)cc2Cl)CC1 [compound 179, 5-chloro-4-({4-[3-chloro-5-(trifluoromethyl)pyridin-2-yl]piperazin-1-yl}sulfonyl)-2,1,3-benzoxadiazole] | 4.70 to 6.00 | ≤ 4.70 |  |
| O=[N+]([O-])c1ccc(-c2cccc(C(F)(F)F)c2)c2nonc12 [compound 309, 4-Nitro-7-[3-(trifluoromethyl)phenyl]-2,1,3-benzoxadiazole] | 4.70 to 6.00 | 4.70 to 6.00 |  |

Second part, the molecule after the results:

| pIC50 (APC11/APC2) | pIC50 ([1]; Homo sapiens, A549, ICAM assay) | pIC50 ([1]; ICAM assay) | SMILES |
| --- | --- | --- | --- |
| ≤ 4.70 | 4.70 to 6.00 |  | COc1cc(NS(=O)(=O)c2c(Cl)ccc3nonc23)c(OC)cc1Cl [compound 343, 5-chloro-N-(4-chloro-2,5-dimethoxyphenyl)-2,1,3-benzoxadiazole-4-sulfonamide] |
| ≤ 4.70 | ≤ 4.70 |  | COc1cc(Nc2ccc3nonc3c2S(=O)(=O)Nc2cc(OC)c(Cl)cc2OC)c(OC)cc1Cl [compound 344, N-(4-chloro-2,5-dimethoxyphenyl)-5-([4-chloro-2,5-dimethoxyphenyl]amino)-2,1,3-benzoxadiazole-4-sulfonamide] |
| ≤ 4.70 | ≤ 4.70 |  | O=S(=O)(c1c(N2CCC(Oc3ccccc3C(F)(F)F)CC2)ccc2nonc12)N1CCC(Oc2ccccc2C(F)(F)F)CC1 [compound 340, 5-[4-(2-{trifluoromethyl}phenoxy)piperidin-1-yl]-4-{[4-(2-{trifluoromethyl}phenoxy)piperidin-1-yl]sulfonyl}-2,1,3-benzoxadiazole] |
| 4.70 to 6.00 | ≤ 4.70 |  | O=[N+]([O-])c1ccc(Sc2nc3ccccc3s2)c2nonc12 [compound 158, 4-(1,3-benzothiazol-2-ylthio)-7-nitro-2,1,3-benzoxadiazole] |
| 4.70 to 6.00 | 4.70 to 6.00 |  | Cc1cccc(-c2ccc([N+](=O)[O-])c3nonc23)c1 [compound 310, 4-(3-Methylphenyl)-7-nitro-2,1,3-benzoxadiazole] |
| 4.70 to 6.00 |  |  | O=S(=O)(c1ccc(Sc2cccc3cccnc23)c2nonc12)N1CCN(c2ncc(C(F)(F)F)cc2Cl)CC1 [compound 177, 8-{[7-({4-[3-chloro-5-(trifluoromethyl)pyridin-2-yl]piperazin-1-yl}sulfonyl)-2,1,3-benzoxadiazol-4-yl]thio}quinoline] |
